Results published in patent EP0598011B1, “ECDYSTEROID DEPENDENT REGULATION OF GENES IN MAMMALIAN CELLS” (GENENTECH, INC., priority 1991, dated 1993).

What was measured:
EcEcEc [1] = molecular target: T1, EcEcEc (Drosophila melanogaster, UniProt P34021); assay: Lex-operator reporter X4C-33CO with EcEcEc (DHR23α); assay type: cell-based; design: To isolate the full-length DHR23α clones; expressed in transfected cells; conditions: receptor EcEcEc, SD in parentheses
Excerpt: (§1) Such fusion constructs are expected to be useful in regulating the expression of exogenous genes introduced into transgenic mammals or mammalian cells. I next determined if the DHR23α ligand-binding domain could be used to regulate the activity of a DNA-binding domain not normally expressed in mammalian cells. I constructed the chimeric gene GLxEc by replacing the sequences coding for the GR DNA-binding domain in the GGEc fusion with those encoding the DNA-binding domain of the Escherichia coli LexA repressor (J. W. Little and S. A. Hill, Proc. Natl. Acad. Sci. U.S.A. 82, 2301 [1985]) (Fig. 4). A reporter gene, X4C-33CO was constructed that contains 4 copies of a 26-bp lex operator (R. Brent and M. Ptashne, Nature 312, 612 [1984]) at position -33 of the CMV promoter. GLxEc had no effect on the expression of a OC-33CO, a reporter gene lacking the lex operator (Fig. 6B).
(§2) Illustrated in Table 2 is the transcriptional activation by receptor-LexA fusion proteins. Effector plasmids encoding the indicated receptor proteins were transfected with a reporter gene either containing (X4C-33CO) or lacking (OC-33CO) lex-operators. […] The cells were incubated either with (+) or without (-) muristerone A. The fold induction was determined as described previously; the standard deviations are shown in parenthesis.

VGEc = molecular target: T2, VGEc (Drosophila melanogaster, UniProt P34021); assay: Induction of GRE reporter G4M-77CO by chimeric receptor VGEc in 293 cells; assay type: cell-based; conditions: normalized to hGH, SD in parentheses
T2 construct: expressed in transfected cells; host or cells: 293 cells
T2 sequence (P34021 329-878): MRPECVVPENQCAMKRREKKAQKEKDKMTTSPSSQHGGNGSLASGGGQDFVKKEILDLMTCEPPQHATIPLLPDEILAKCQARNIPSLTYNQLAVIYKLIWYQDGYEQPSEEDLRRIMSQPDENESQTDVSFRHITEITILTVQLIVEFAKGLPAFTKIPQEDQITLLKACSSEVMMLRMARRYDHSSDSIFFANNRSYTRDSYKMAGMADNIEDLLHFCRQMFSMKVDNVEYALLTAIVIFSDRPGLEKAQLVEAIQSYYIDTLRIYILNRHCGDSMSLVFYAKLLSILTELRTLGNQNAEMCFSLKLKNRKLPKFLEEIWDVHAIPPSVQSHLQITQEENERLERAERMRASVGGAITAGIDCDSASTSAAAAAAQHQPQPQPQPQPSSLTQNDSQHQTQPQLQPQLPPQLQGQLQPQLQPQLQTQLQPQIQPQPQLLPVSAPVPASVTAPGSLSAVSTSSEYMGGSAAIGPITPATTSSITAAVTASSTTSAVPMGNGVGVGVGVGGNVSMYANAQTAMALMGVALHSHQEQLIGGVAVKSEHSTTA
Excerpt: Finally, I determined if the activity of DHR23α fusion proteins could be further enhanced by inclusion of a potent viral transactivation domain. I constructed VGEc and VLxEc fusion genes by replacing a portion of the GR N-terminal activation domain in GGEc and GLxEc, respectively, with the herpes virus VP16 acidic activation domain (I. Sadowski et al., […]. 335, 563 [1988]; D. J. Cousens, R. Greaves, C. R. Coding, and P. O'Hare, EMBO J. 8, 2337 [1989]) (Fig. 4A). In transfected cells, these proteins accumulated to similar levels as derivatives lacking the VP16 activation domain (Fig. 4B). Both VGEc and VLxEc acted in an ecdysteroid-dependent fashion to induce activity of the appropriate reporter gene (Tables 1 and 2). However, the activity of VGEc and VLxEc was 5 and 10 fold greater than GGEc and GLxEc, respectively (M..A. Labow, S.B. Baim, T. Shenk, and A. J. Levine, Mol. and Cell. Biol. 10, 3343 [1990]). Thus, the DHR23α ligand-binding domain can be used to regulate the activities of viral, mammalian and bacterial DNA-binding or transactivation domains.

OC-33CO = assay: Reporter OC-33CO lacking lex-operators, control effector plasmid without receptor cDNA; assay type: cell-based; conditions: SD in parentheses
Excerpt: as §1, §2

GGG = molecular target: T3, GGG (Rattus norvegicus, UniProt P06536); assay: Induction of GRE reporter G4M-77CO by GGG (glucocorticoid receptor) in 293 cells; conditions: normalized to hGH, SD in parentheses, 2880 min
T3 sequence (P06536 1-795): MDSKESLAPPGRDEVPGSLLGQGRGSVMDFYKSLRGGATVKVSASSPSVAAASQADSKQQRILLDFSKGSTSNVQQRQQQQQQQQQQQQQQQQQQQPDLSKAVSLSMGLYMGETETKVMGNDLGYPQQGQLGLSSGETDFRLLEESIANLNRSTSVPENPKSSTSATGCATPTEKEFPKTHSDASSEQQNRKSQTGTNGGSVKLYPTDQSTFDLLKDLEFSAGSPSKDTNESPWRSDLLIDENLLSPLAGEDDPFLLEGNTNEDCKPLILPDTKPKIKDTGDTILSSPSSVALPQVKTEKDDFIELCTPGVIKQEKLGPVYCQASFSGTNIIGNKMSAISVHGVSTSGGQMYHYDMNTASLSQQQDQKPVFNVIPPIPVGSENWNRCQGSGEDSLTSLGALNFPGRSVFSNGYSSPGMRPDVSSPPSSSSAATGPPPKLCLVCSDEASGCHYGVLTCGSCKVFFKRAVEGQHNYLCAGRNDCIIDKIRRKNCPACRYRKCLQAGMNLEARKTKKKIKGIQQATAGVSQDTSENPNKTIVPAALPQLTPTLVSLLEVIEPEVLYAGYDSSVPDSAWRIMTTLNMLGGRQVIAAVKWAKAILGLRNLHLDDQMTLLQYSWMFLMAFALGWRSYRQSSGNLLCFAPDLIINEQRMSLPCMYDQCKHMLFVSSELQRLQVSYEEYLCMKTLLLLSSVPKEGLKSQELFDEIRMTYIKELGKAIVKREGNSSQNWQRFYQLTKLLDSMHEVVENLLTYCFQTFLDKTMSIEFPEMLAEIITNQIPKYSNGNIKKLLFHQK

EcEcEc [2] = molecular target: T1, EcEcEc; assay: Induction of GRE reporter G4M-77CO by EcEcEc (DHR23α) in 293 cells; assay type: cell-based; design: To isolate the full-length DHR23α clones; expressed in transfected cells; host or cells: human 293 cells; conditions: receptor EcEcEc, normalized to hGH, SD in parentheses, 2880 min
Protocol: "G" and "Ec" refer to the glucocorticoid receptor and DHR23α, respectively.
293 cells were transfected with effector plasmids encoding the indicated receptor proteins and the reporter gene G4M-77CO. These transfected cells were incubated either without added hormone (-), with muristerone A (M) or with dex (D).

GXEc = molecular target: T4, GXEc (Drosophila melanogaster, UniProt P34021); assay: Reporter OC-33CO lacking lex-operators with GXEc; assay type: cell-based; conditions: receptor GXEc, SD in parentheses
T4 construct: expressed in transfected cells
T4 sequence (P34021 329-878): T2 sequence (P34021 329-878)
Excerpt: as §1, §2

insect = conditions: in vivo; cited from earlier work

T1 sequence (P19793 whole entry, the tested form may be a part): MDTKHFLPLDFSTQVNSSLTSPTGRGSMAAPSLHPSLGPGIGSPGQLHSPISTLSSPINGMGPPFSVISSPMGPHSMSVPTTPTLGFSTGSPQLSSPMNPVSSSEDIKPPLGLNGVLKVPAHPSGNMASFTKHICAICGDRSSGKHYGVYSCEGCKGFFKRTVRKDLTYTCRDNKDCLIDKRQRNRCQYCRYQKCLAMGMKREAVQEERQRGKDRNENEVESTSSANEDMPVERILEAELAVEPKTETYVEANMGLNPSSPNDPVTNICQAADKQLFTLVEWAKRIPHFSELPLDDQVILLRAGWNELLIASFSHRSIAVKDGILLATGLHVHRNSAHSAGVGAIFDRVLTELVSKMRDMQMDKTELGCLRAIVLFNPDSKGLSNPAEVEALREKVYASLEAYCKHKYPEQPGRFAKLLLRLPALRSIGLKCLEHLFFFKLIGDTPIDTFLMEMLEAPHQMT
T1 sequence (P34021 whole entry, the tested form may be a part): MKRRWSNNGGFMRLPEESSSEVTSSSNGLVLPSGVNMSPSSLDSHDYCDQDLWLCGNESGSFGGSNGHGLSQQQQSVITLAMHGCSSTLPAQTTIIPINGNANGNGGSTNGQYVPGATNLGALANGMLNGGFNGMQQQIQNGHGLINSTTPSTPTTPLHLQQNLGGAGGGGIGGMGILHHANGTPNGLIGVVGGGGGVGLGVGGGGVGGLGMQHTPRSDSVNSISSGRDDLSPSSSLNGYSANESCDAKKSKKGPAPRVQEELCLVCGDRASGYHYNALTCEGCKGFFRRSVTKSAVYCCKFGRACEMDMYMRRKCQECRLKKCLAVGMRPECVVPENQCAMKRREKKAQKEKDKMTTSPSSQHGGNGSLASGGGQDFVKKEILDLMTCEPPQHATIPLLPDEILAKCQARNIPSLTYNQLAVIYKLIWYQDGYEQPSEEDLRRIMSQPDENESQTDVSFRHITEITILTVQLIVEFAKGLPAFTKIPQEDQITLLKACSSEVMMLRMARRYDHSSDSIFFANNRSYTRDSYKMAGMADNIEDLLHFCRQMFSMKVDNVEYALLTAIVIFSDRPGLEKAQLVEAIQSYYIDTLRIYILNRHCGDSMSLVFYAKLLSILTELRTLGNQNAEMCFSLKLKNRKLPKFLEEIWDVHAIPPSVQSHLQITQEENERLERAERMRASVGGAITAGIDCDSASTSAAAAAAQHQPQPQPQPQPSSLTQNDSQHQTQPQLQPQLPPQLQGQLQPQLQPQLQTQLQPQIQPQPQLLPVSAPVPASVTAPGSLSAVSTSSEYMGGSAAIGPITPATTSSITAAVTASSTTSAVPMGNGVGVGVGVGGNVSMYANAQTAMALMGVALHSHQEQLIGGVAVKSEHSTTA

CC(C)CCC(O)[C@](C)(O)[C@H]1CC[C@@]2(O)C3=CC(=O)C4(O)CC(O)C(O)C[C@]4(C)[C@H]3C(O)C[C@]12C (some centres unmarked) [muristerone A, 2,3,5,11,14,20,22-Heptahydroxy-7-cholesten-6-one]
fold induction (EcEcEc [1]): 1.4 (0.1) fold | fold induction (EcEcEc [1]; listed as muristerone): not induced | fold induction (VGEc): 3117 (240) fold | fold induction (OC-33CO): 1.1 (0.4) fold | fold induction (GGG): 1.0 (0.3) fold | fold induction (EcEcEc [2]): 0.9 (0.2) fold | fold induction (GXEc): 0.9 (0.3) fold | insect moulting activity (insect): high
